From patent US20130011392A1, “METHOD FOR ASSESSING THE ABILITY OF A PATIENT TO RESPOND TO OR BE SAFELY TREATED BY A NUCLEOSIDE ANALOG BASED-CHEMOTHERAPY” (Assistance Publique Hopitaux De Marseille, priority 2009, published 2013)
Read-outs that look alike come from different tables or passages of the source.

Legend:
[1] = Animal pharmacokinetics of gemcitabine; format: in vivo, swiss mice; conditions: for clearance: male, Swiss, mouse, plasma, intraperitoneal; for Gemcitabine exposure AUC0-60: gemcitabine 100 mg/kg intraperitoneally; for Increase in gemcitabine exposure in animals with inhibited CDA: inhibited CDA (THU) vs normal CDA
Experimental: (§1) Parent-drug and difluorodeoxyuridine (dFdU) metabolite concentrations in plasma were assayed by UV-HPLC, as described in the literature (10). Elimination rate of gemcitabine was evaluated through a compartmental analysis and a stochastic model, using a home-built algorithm (11). Mean metabolization ratio for gemcitabine was calculated as follows: dFdU (μg/ml)/gemcitabine (μg/ml)×100. Carcass weights were monitored. Drug-induced leucopenia was the marker for gemcitabine-related toxicity. Leucocytes count was performed on day-0, then day-2, day-5 and day-8 post injection using Flow Cytometry analysis.

leucocytes = assay: Animal haematological toxicity monitoring (leucocytes count); format: in vivo, swiss mice; conditions: for Mean leucocytes count: day 5 after gemcitabine 100 mg/kg
Experimental: as §1

adult cancer patients = assay: Treatment-related toxicities in adult cancer patients (NCI-CTC); format: in vivo, human
Description: A total of 150 cancer patients (130 adults—Table 1 and 20 children—Table 2) hospitalized at La Timone University Hospital of Marseille, France, from January 2007 to December 2008, were enrolled in this retrospective, observational study. Written informed consent and local ethic committee approval were obtained prior to performing CDA testing. Patients were divided into 3 subsets: […] These patients were mostly treated for pancreatic (n=40 patients) or gynaecological (n=7 patients) cancers. Other tumour types included liver, lung, vesical, or other localizations. In patients with digestive cancers, gemcitabine was administered as a fixed-dose rate infusion, whereas other patients received a standard rapid infusion. […] Remaining patients were given various drug combinations including capecitabine, fluorouracil (5-FU), herceptin, navelbine, sorafenib, axatinib, and erlotinib. Gemcitabine was given either as a rapid infusion or at fixed-dose rate infusion, depending on tumor location, as described previously. Twenty patients were treated for vesical-urothelial cancers. Other tumour types were pancreatic (n=12 patients), breast (n=12 patients), gynaecological (n=12 patients), and other, including lung, head and neck, liver, and other localisations. Toxicities were graded following the standard National Cancer Institute-Common Toxicity Criteria guidelines. Toxicities of grade ≧3 were regarded as “severe”.

[2] = system: paediatric cancer patients; assay: Treatment-related toxicities in children; format: in vivo, human
Description: Subset 3: 20 patients (12 men/8 women; mean and SD age, 12±7 years) from the Pediatric Oncology Unit of La Timone University Hospital that had been previously treated with gemcitabine-based protocols had their CDA status phenotyped as well (Table 2). Most of these young patients were heavily pre-treated, and gemcitabine was mostly given as part of a Gemox protocol (n=14 patients), or associated with paclitaxel (n=3 patients) or with various other anticancer drugs (e.g.
carboplatine, liposomal doxorubicin) or dexamethasone. In children, mean gemcitabine dose was 1028±190 mg/m^2 (minimum, 600 mg/m^2 —maximum, 1400 mg/m^2). Tumour types were extremely heterogeneous and included osteosarcoma, medulloblastoma, Ewing's sarcoma, and Hodgkin's syndrome.
Toxicities were graded following the standard National Cancer Institute-Common Toxicity Criteria guidelines. Toxicities of grade ≧3 were regarded as “severe”. A toxic event was considered “early” when occurring […] the 1st or the 2nd day of the gemcitabine course, and was considered “late” when occurring after those days.

[3] = system: pancreatic cancers and other digestive localizations; assay: Treatment efficacy in digestive cancer patients by CT imaging / CA19-9 at 3 months; format: in vivo, human; conditions: gemcitabine alone or combined
Experimental: A total of 40 adult patients (21 men/19 women; 61±11 years old) with mostly pancreatic cancers (n=36 patients) and other digestive localizations (n=4 patients) were included in this retrospective study. All patients had been treated with gemcitabine alone (n=23 patients), associated with oxaliplatin (n=7 patients), erlotinib (n=2 patients), capecitabine (n=1 patient) or other drugs, including molecules used in target therapies (n=7 patients). Mean gemcitabine dose was 980 mg/m^2 (minimum: 500 mg/m^2, maximum: 1250 mg/m^2). CDA activity was measured spectrophotometrically from serum samples. Search for three genetic mutations (79A>C, 435T>C and 208G>A) was additionally performed. The cut-off associated with CDA extensiveness (extensive CDA activity) was set at 6 U/mg (e.g., >25% of the mean value of the population). Treatment efficacy was evaluated 3 month after beginning of the chemotherapy by CT imaging, with or without additional monitoring of the CA19-9 tumor marker.

patients = conditions: cited from earlier work
[4] = extensive subset (CDA>6 U/mg, n=8)

For `Nc1ccn([C@@H]2O[C@H](CO)[C@@H](O)C2(F)F)c(=O)n1` [gemcitabine, 2′-deoxy-2′,2′-difluorocytidine], the clearance [1] was 3.25 mL/min/kg, the clearance ([1]; 100 mg/kg, mice, normal CDA) was 12.6 mL/min/kg and the “Decrease of gemcitabine clearance” value ([1]; mice with altered CDA function (THU) vs normal) was 74%. For the same molecule, the “Gemcitabine exposure AUC0-60” value ([1]; mice, inhibited CDA (THU pre-treatment)) was 142 µg/mL/min, the “Gemcitabine exposure AUC0-60” value ([1]; mice, normal CDA) was 54 µg/mL/min and the “Increase in gemcitabine exposure in animals with inhibited CDA” value ([1]; mice) was about 3 fold. The “Increase in gemcitabine exposure in animals with inhibited CDA” value ([1]; mice, listed as Gemcitabine) was 2.6 fold, the “Outcome by day 8” value (leucocytes; CDA-deficient mice (THU)) was “all animals were dead” and the “Decrease of leucocytes count” value (leucocytes; day 5, CDA-deficient mice (THU)) was 65%. The “Decrease of leucocytes count as compared with untreated animals” value (leucocytes; day 5, mice with normal CDA activity) was 23%, the Mean leucocytes count (leucocytes; CDA-deficient mice (THU)) was 1.5 G/L and the Mean leucocytes count (leucocytes; mice with normal CDA activity) was 3.2 G/L. The “Outcome by day 8” value (leucocytes; mice with normal CDA activity) was “all animals spontaneously recovered from their toxicities”, the “Patients with severe side-effects” value (adult cancer patients; 66 extra-patients, gemcitabine in combination with another anticancer drug) was 14% and the “Patients with early severe toxicities” value (adult cancer patients; 130 adult patients, gemcitabine-containing protocol, after first or second administration) was 12%. The “Patients with early severe toxicities” value (adult cancer patients; Subset 1, gemcitabine alone, n=64) was 11%, the “Anemia grade 3/4, Early” value (adult cancer patients; Subset 1, monotherapy, n=64) was 1 (1.6%) n (%) and the “Anemia grade 3/4, Late” value (adult cancer patients; Subset 1, monotherapy, n=64) was 1 (1.6%) n (%). The “Asthenia grade 3/4, Early” value (adult cancer patients; Subset 1, monotherapy, n=64) was 1 (1.6%) n (%), the “Asthenia grade 3/4, Late” value (adult cancer patients; Subset 1, monotherapy, n=64) was 1 (1.6%) n (%) and the “Diarrhea grade 3/4, Early” value (adult cancer patients; Subset 1, monotherapy, n=64) was 0 (0%) n (%). For the same molecule, the “Diarrhea grade 3/4, Late” value (adult cancer patients; Subset 1, monotherapy, n=64) was 1 (1.6%) n (%), the “Leucopenia grade 3/4, Early” value (adult cancer patients; Subset 1, monotherapy, n=64) was 7 (11%) n (%) and the “Leucopenia grade 3/4, Late” value (adult cancer patients; Subset 1, monotherapy, n=64) was 10 (16%) n (%). For the same molecule, the “Neutropenia grade 3/4, Early” value (adult cancer patients; Subset 1, monotherapy, n=64) was 6 (9.6%) n (%), the “Neutropenia grade 3/4, Late” value (adult cancer patients; Subset 1, monotherapy, n=64) was 8 (12.8%) n (%) and the “Sepsis grade 3/4, Early” value (adult cancer patients; Subset 1, monotherapy, n=64) was 3 (4.8%) n (%). For the same molecule, the “Sepsis grade 3/4, Late” value (adult cancer patients; Subset 1, monotherapy, n=64) was 0 (0%) n (%), the “Thrombopenia grade 3/4, Early” value (adult cancer patients; Subset 1, monotherapy, n=64) was 2 (3.2%) n (%) and the “Thrombopenia grade 3/4, Late” value (adult cancer patients; Subset 1, monotherapy, n=64) was 2 (3.2%) n (%). The “Late/cumulative grade-3 anemia” value ([2]; Subset 3, 20 children) was 20%, the “Late/cumulative grade-3 neutropenia” value ([2]; Subset 3, 20 children) was 20% and the “Late/cumulative grade-3 thrombopenia” value ([2]; Subset 3, 20 children) was 10%. The Early severe toxicities ([2]; Subset 3, 20 children, gemcitabine-based protocols) was “No early severe toxicities were observed”, the Tolerance ([2]; children) was “well tolerated” and the “Non-responders with progressive disease” value [3, 4] was 75%. The “Patients with controlled disease” value [3, 4] was 25%, the “Patients with controlled disease” value ([3]; non-extensive subset (CDA<6 U/mg, n=32)) was 84.5% and the Severe toxicities reported (patients; gemcitabine given as a combination (polychemotherapy)) was 15-30%. For the same molecule, the Severe toxicities reported (patients; gemcitabine monochemotherapy) was 5-10%.
